1 substance from US20240130966A1 (Aerovate Therapeutics, Inc., priority 2021, published 2024) can be followed below.

Like-named read-outs stand apart in the source and are kept apart here.

How the values of the data set were obtained:
Generator impactor profiles were prepared for ceramic milled powders both before and after conditioning with high humidity for a short time (80-90% RH at room temperature for ˜3 hours).
Again, the exposure consisted of 80%-90% relative humidity at room temperature for about 3 hours.

The mark [1] stands for this setting: Post-exposure, 80%-90% relative humidity at room temperature for about 3 hours (N=9).

On to Imatinib, for which the “FPF of emitted dose (%)” value under setting [1] is on record as 66.8 +/− 4.3% and the “FPF of emitted dose (%)” value (Pre-exposure to humidity (N=7)) is listed as 52.3 +/− 6.3%. Besides, the “FPF of fill (%)” value under setting [1] is given as 48.1 +/− 3.0% and the “FPF of fill (%)” value (Pre-exposure to humidity (N=7)) was 36.2 +/− 3.5%. The “Increase in fine particle dose (stage 3-MOC levels) after humidity conditioning” value (ceramic milled powders, 80-90% RH at room temperature for ~3 hours, FIG. 1) is recorded as 10-20 % of the capsule fill dose. The “Delivery performance after desorption compared to post-humidification powders” value (humidity for 12+ hours, then desorbed at <5% RH for about 24 hours) is “no change in delivery performance”.
